Laboratory results from patent publication US20080051400A1, “Methods for treating or preventing anemia or thrombocytopenia using a triheterocyclic compound” (Gemin X Biotechnologies Inc., priority 2006, published 2008).

Columns and labels:
[1] = system: patients having chronic lymphocytic leukemia (CLL); test: Multi-center, double-blind, dose-ranging study in patients having chronic lymphocytic leukemia (CLL); format: in vivo, human
Procedure: In a multi-center, double-blind, dose-ranging study, two groups of patients having chronic lymphocytic leukemia (CLL) received intravenous doses of either 3.5-14 mg/m^2 of the mesylate salt of Compound 1 administered as a 1-hour infusion, or a 20-40 mg/m2 dose via a 3-hour infusion. These infusions were administered over a period of several weeks to several months.

[2] = system: patients having myelodysplastic syndromes (MDS); test: Multi-center, open label, dose escalation study in patients having myelodysplastic syndromes (MDS); format: in vivo, human
Procedure: In a multi-center, open label, dose escalation study, a group of eight patients having myelodysplastic syndromes (MDS) received intravenous doses of 7-40 mg/m^2 of the mesylate salt of Compound 1 administered as a 24-hour infusion every two weeks. These infusions were administered over a period of several weeks to several months, the first cycle of infusion was administered in a clinical unit but the subsequent four cycles were administered in the ambulatory setting using portable infusion pumps.

In the case of `COC1=CC(c2cc3ccccc3[nH]2)=N/C1=C\c1[nH]c(C)cc1C` [Compound 1], the “anemic patients who showed significant hemoglobin elevation” value ([1]; CLL patients with initial hemoglobin counts of less than 11 g/dL, mesylate salt i.v. 3.5-40 mg/m^2) is reported as “three out of eleven anemic patients”, the “patients having thrombocytopenia who showed significant increases in platelet count” value ([1]; CLL patients with initial platelet counts less than 150×10^9/L, mesylate salt i.v. 3.5-14 mg/m^2 as 1-hour infusion or 20-40 mg/m2 as 3-hour infusion, over several weeks to several months) is reported as “Four patients out of fourteen patients” and the “patients becoming transfusion independent (hemoglobin responders)” value ([1]; among the three anemic CLL patients with hemoglobin elevation, FIG. 1) is reported as “two of the patients”. The “increase in platelet count in responding patients” value ([1]; four responding thrombocytopenic CLL patients, mesylate salt i.v. 3.5-40 mg/m^2) was “over 50%”, the “patients who showed hematological improvement in hemoglobin levels” value ([2]; MDS patients, mesylate salt i.v. 7-40 mg/m^2 as 24-hour infusion every two weeks, FIG. 2A) was “Three out of eight patients” and the “patients who showed platelet count elevation” value ([2]; MDS patients, mesylate salt i.v. 7-40 mg/m^2 as 24-hour infusion every two weeks, FIG. 2B, patient 3 was not thrombocytopenic at start) was “these three patients showed platelet count elevation”. For the same compound, the “patients becoming transfusion independent (hemoglobin responders)” value ([2]; among the three MDS patients with hemoglobin improvement, FIG. 2A) was “two of the patients” and the “patients becoming transfusion independent (platelet responders)” value ([2]; among the three MDS patients with platelet count elevation, FIG. 2B) was “one of the patients”.
